# Test results published in the supplement of paper PMC10307832.
# Assays:
# Assay in all cases: relative viability (nuclei count vs DMSO), 5 days (fraction); higher = more cells survive
# [1] = compound: CCCS(=O)(=O)Nc1ccc(F)c(C(=O)c2c[nH]c3ncc(-c4ccc(Cl)cc4)cc23)c1F [Vemurafenib] + CS(=O)(=O)CCNCc1ccc(-c2ccc3ncnc(Nc4ccc(OCc5cccc(F)c5)c(Cl)c4)c3c2)o1 [Lapatinib] (partner 2 µM)
# Method in brief: (§1)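 Medians of duplicate plates are given as relative viability. That measure is the nuclei count in treated wells divided by the count in vehicle wells. Counts were taken on 4× images of lung cancer cell lines in 1536-well plates, 5 days after pin-tool dosing the day after seeding with one drug alone or a fixed anchor-drug dose plus five library-drug doses (not always all listed) in √10 steps.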
# [2] = compound: CCCS(=O)(=O)Nc1ccc(F)c(C(=O)c2c[nH]c3ncc(-c4ccc(Cl)cc4)cc23)c1F [Vemurafenib] + O=C(CCCCCCC(=O)Nc1ccccc1)NO [Vorinostat] (partner 1 µM)
# Method in brief: as §1
# [3] = compound: COc1cccc2cc(-c3nc([C@H]4CC[C@H](C(=O)O)CC4)n4ncnc(N)c34)[nH]c12 [OSI-027] + O=C(c1cc(Cc2n[nH]c(=O)c3ccccc23)ccc1F)N1CCN(C(=O)C2CC2)CC1 [Olaparib] (partner 8 µM)
# Method in brief: as §1
# [4] = compound: Cc1nc(NC(=O)N2CCC[C@H]2C(N)=O)sc1-c1ccnc(C(C)(C)C(F)(F)F)c1 [Alpelisib] + NC(=O)Nc1cc(-c2cccc(F)c2)sc1C(=O)N[C@H]1CCCNC1 [AZD7762] (partner 0.2 µM)
# Method in brief: as §1
cell line,measurement,setting,value
NCI-H1563,relative viability,[1]; first compound 0.03162 µM,0.842
same,relative viability,[1]; first compound 0.1 µM,0.886
same,relative viability,[1]; first compound 0.3162 µM,0.84
same,relative viability,[1]; first compound 1 µM,0.961
NCI-H1648,relative viability,[2]; first compound 0.1 µM,0.315
same,relative viability,[2]; first compound 0.3162 µM,0.706
same,relative viability,[2]; first compound 1 µM,0.546
same,relative viability,[3]; first compound 0.01 µM,1.06
same,relative viability,[3]; first compound 0.03162 µM,0.725
same,relative viability,[3]; first compound 0.3162 µM,0.639
same,relative viability,[3]; first compound 1 µM,0.397
same,relative viability,[4]; first compound 0.04 µM,0.581
same,relative viability,[4]; first compound 0.1265 µM,0.591
same,relative viability,[4]; first compound 0.4 µM,0.821
same,relative viability,[4]; first compound 1.265 µM,0.62
same,relative viability,[4]; first compound 4 µM,0.521
NCI-H1650,relative viability,[1]; first compound 0.03162 µM,0.7
same,relative viability,[1]; first compound 0.3162 µM,0.699
same,relative viability,[1]; first compound 1 µM,0.738
same,relative viability,[2]; first compound 0.03162 µM,0.466
same,relative viability,[2]; first compound 0.1 µM,0.477
same,relative viability,[2]; first compound 0.3162 µM,0.682
same,relative viability,[2]; first compound 1 µM,0.485
same,relative viability,[3]; first compound 0.01 µM,0.794
same,relative viability,[3]; first compound 0.03162 µM,0.825
same,relative viability,[3]; first compound 0.1 µM,0.873
same,relative viability,[3]; first compound 0.3162 µM,0.807
same,relative viability,[3]; first compound 1 µM,0.722
NCI-H1703,relative viability,[1]; first compound 0.03162 µM,1.19
same,relative viability,[1]; first compound 0.1 µM,0.916
same,relative viability,[1]; first compound 0.3162 µM,0.924
same,relative viability,[1]; first compound 1 µM,0.987
same,relative viability,[3]; first compound 0.01 µM,0.424
same,relative viability,[3]; first compound 0.03162 µM,0.552
same,relative viability,[3]; first compound 0.1 µM,0.316
same,relative viability,[3]; first compound 0.3162 µM,0.304
same,relative viability,[3]; first compound 1 µM,0.19
same,relative viability,[4]; first compound 0.04 µM,0.0965
same,relative viability,[4]; first compound 0.1265 µM,0.129
same,relative viability,[4]; first compound 0.4 µM,0.125
same,relative viability,[4]; first compound 1.265 µM,0.103
same,relative viability,[4]; first compound 4 µM,0.116
NCI-H1792,relative viability,[1]; first compound 0.03162 µM,0.819
same,relative viability,[1]; first compound 0.1 µM,0.886
same,relative viability,[1]; first compound 0.3162 µM,0.651
same,relative viability,[1]; first compound 1 µM,0.959
same,relative viability,[3]; first compound 0.01 µM,0.33
same,relative viability,[3]; first compound 0.03162 µM,0.296
same,relative viability,[3]; first compound 0.1 µM,0.247
same,relative viability,[3]; first compound 0.3162 µM,0.354
same,relative viability,[3]; first compound 1 µM,0.142
same,relative viability,[4]; first compound 0.04 µM,0.59
same,relative viability,[4]; first compound 0.1265 µM,0.534
same,relative viability,[4]; first compound 0.4 µM,0.783
same,relative viability,[4]; first compound 1.265 µM,0.465
same,relative viability,[4]; first compound 4 µM,0.36
NCI-H2009,relative viability,[1]; first compound 0.03162 µM,0.897
same,relative viability,[1]; first compound 0.1 µM,0.876
same,relative viability,[1]; first compound 0.3162 µM,0.559
same,relative viability,[1]; first compound 1 µM,0.759
same,relative viability,[2]; first compound 0.03162 µM,0.813
same,relative viability,[2]; first compound 0.1 µM,0.731
same,relative viability,[2]; first compound 0.3162 µM,0.715
same,relative viability,[2]; first compound 1 µM,0.665
same,relative viability,[3]; first compound 0.01 µM,0.859
same,relative viability,[3]; first compound 0.03162 µM,0.674
same,relative viability,[3]; first compound 0.1 µM,0.724
same,relative viability,[3]; first compound 0.3162 µM,0.584
same,relative viability,[3]; first compound 1 µM,0.555
NCI-H2023,relative viability,[1]; first compound 0.03162 µM,0.734
same,relative viability,[1]; first compound 0.1 µM,0.812
same,relative viability,[1]; first compound 0.3162 µM,0.736
same,relative viability,[1]; first compound 1 µM,0.725
same,relative viability,[2]; first compound 0.03162 µM,0.531
same,relative viability,[2]; first compound 0.1 µM,0.662
same,relative viability,[2]; first compound 0.3162 µM,0.57
same,relative viability,[2]; first compound 1 µM,0.584
same,relative viability,[3]; first compound 0.01 µM,0.455
same,relative viability,[3]; first compound 0.03162 µM,0.446
same,relative viability,[3]; first compound 0.1 µM,0.455
same,relative viability,[3]; first compound 0.3162 µM,0.303
same,relative viability,[3]; first compound 1 µM,0.253
NCI-H2228,relative viability,[1]; first compound 0.03162 µM,1.11
same,relative viability,[1]; first compound 0.1 µM,1.09
same,relative viability,[1]; first compound 0.3162 µM,1.21
same,relative viability,[1]; first compound 1 µM,1.06
same,relative viability,[2]; first compound 0.03162 µM,0.457
same,relative viability,[2]; first compound 0.1 µM,0.536
same,relative viability,[2]; first compound 0.3162 µM,0.589
same,relative viability,[2]; first compound 1 µM,0.595
same,relative viability,[3]; first compound 0.01 µM,0.952
same,relative viability,[3]; first compound 0.03162 µM,0.644
same,relative viability,[3]; first compound 0.1 µM,0.562
same,relative viability,[3]; first compound 0.3162 µM,0.474
same,relative viability,[3]; first compound 1 µM,0.226
NCI-H2342,relative viability,[2]; first compound 0.03162 µM,0.623
same,relative viability,[2]; first compound 0.1 µM,0.785
same,relative viability,[2]; first compound 0.3162 µM,0.755
same,relative viability,[2]; first compound 1 µM,0.787
same,relative viability,[3]; first compound 0.01 µM,0.522
same,relative viability,[3]; first compound 0.03162 µM,0.385
same,relative viability,[3]; first compound 0.1 µM,0.439
same,relative viability,[3]; first compound 0.3162 µM,0.338
same,relative viability,[3]; first compound 1 µM,0.314
same,relative viability,[4]; first compound 0.04 µM,0.477
same,relative viability,[4]; first compound 0.1265 µM,0.421
same,relative viability,[4]; first compound 0.4 µM,0.506
same,relative viability,[4]; first compound 1.265 µM,0.497
same,relative viability,[4]; first compound 4 µM,0.426
SK-LU-1,relative viability,[1]; first compound 0.03162 µM,0.777
same,relative viability,[1]; first compound 0.1 µM,0.791
same,relative viability,[1]; first compound 1 µM,0.803
same,relative viability,[2]; first compound 0.03162 µM,0.699
same,relative viability,[2]; first compound 0.1 µM,0.687
same,relative viability,[2]; first compound 0.3162 µM,0.535
same,relative viability,[2]; first compound 1 µM,0.835
same,relative viability,[3]; first compound 0.01 µM,0.399
same,relative viability,[3]; first compound 0.03162 µM,0.43
same,relative viability,[3]; first compound 0.1 µM,0.396
same,relative viability,[3]; first compound 0.3162 µM,0.359
same,relative viability,[3]; first compound 1 µM,0.265
SK-MES-1,relative viability,[1]; first compound 0.03162 µM,0.427
same,relative viability,[1]; first compound 0.1 µM,0.477
same,relative viability,[1]; first compound 0.3162 µM,0.493
same,relative viability,[1]; first compound 1 µM,0.486
same,relative viability,[2]; first compound 0.03162 µM,1.06
same,relative viability,[2]; first compound 0.3162 µM,0.949
same,relative viability,[2]; first compound 1 µM,1.01
same,relative viability,[3]; first compound 0.01 µM,0.62
same,relative viability,[3]; first compound 0.03162 µM,0.605
same,relative viability,[3]; first compound 0.1 µM,0.532
same,relative viability,[3]; first compound 0.3162 µM,0.417
same,relative viability,[3]; first compound 1 µM,0.285
SW 900,relative viability,[2]; first compound 0.03162 µM,0.41
same,relative viability,[2]; first compound 0.1 µM,0.466
same,relative viability,[2]; first compound 0.3162 µM,0.636
same,relative viability,[2]; first compound 1 µM,0.379
same,relative viability,[3]; first compound 0.01 µM,0.953
same,relative viability,[3]; first compound 0.03162 µM,0.819
same,relative viability,[3]; first compound 0.1 µM,0.931
same,relative viability,[3]; first compound 0.3162 µM,0.823
same,relative viability,[3]; first compound 1 µM,0.519
same,relative viability,[4]; first compound 0.04 µM,0.629
same,relative viability,[4]; first compound 0.4 µM,0.545
same,relative viability,[4]; first compound 1.265 µM,0.546
same,relative viability,[4]; first compound 4 µM,0.519
SW 1573,relative viability,[1]; first compound 0.03162 µM,1.01
same,relative viability,[1]; first compound 0.1 µM,0.916
same,relative viability,[1]; first compound 0.3162 µM,1.02
same,relative viability,[1]; first compound 1 µM,0.978
same,relative viability,[2]; first compound 0.03162 µM,0.655
same,relative viability,[2]; first compound 0.1 µM,0.767
same,relative viability,[2]; first compound 0.3162 µM,0.473
same,relative viability,[2]; first compound 1 µM,0.537
same,relative viability,[3]; first compound 0.01 µM,0.485
same,relative viability,[3]; first compound 0.03162 µM,0.513
same,relative viability,[3]; first compound 0.1 µM,0.398
same,relative viability,[3]; first compound 0.3162 µM,0.444
same,relative viability,[3]; first compound 1 µM,0.293
